# From patent US20110123470A1, “NATURAL BIOACTIVE COMPOUNDS” (Aquapharm Bio-Discovery Ltd., priority 2007, published 2011)
# What was measured:
# MRSA = assay: Antimicrobial activity against MRSA; format: cell-based
# Malassezia furfur = assay: Antifungal activity assay (MIC) in PDA media; format: cell-based; conditions: for M. furfur (MIC): PDA media containing 0.2% yeast extract
# Description: (§1) Candida albicans and Malassezia furfur were used to carry out the antifungal assay in Potato Dextrose Agar (PDA) media containing 0.2% yeast extract. The Minimum Inhibitory Concentration (MIC) was recorded (Table 1).
# Candida albicans = assay: Antifungal activity assay (MIC) in PDA media; format: cell-based; conditions: for C. albicans (MIC): PDA media containing 0.2% yeast extract
# Description: as §1
# [1] = test system: anti-oxidant response element (ARE); assay: Antioxidant elicitation assay (ARE-driven luciferase activity) in reporter cell line ARE32; format: cell-based; conditions: ARE32 cells
# Description: The cell line ARE32 was incubated with eight concentrations of P1639C and the positive control tert-butylhydroquinone (tBHQ) for 24 hours, and the luciferase activity measured (Luciferase Assay System, Promega). P1639C enhanced induction of ARE-driven luciferase activity up to 18-fold (at a concentration of 30 μM) (FIG. 2b) compared with normal cells without any oxidative induction.
# The ARE comparison was also carried out between p1639C (5-hexyl-2(5H)-furanone), 4-decanolide (5-hexyl-2(3H)-furanone) and 2(5H)-furanone.
# NF-κB = assay: Anti-inflammatory assay: NFκB activity in TNF-α stimulated mammalian cell culture (PRINCESS NINA NFκB Assay Kit); format: cell-based
# Description: (§2) Anti-inflammatory assay was carried out based on the NFκB expression and IKKβ activity. NFκB expression was tested using PRINCESS® NINA NFκB Assay Kit. P1639C and other related lactone compounds were supplemented to a mammalian cell culture in which NFκB has been stimulated by TNF-α. The assay was also coupled with an in vitro cell toxicity assay. IKKβ was tested using 5-20 mU of IKKβ, which was diluted in 50 mM Tris (pH 7.5), 0.1 mM EGTA, 1 mg/ml BSA, 0.1%, b-Mercaptoethanol. The kinase is assayed against substrate peptide (LDDRHDSGLDSMKDEEY) in a final volume of 25.5 μl containing 50 mM Tris (pH 7.5), 0.1 mM EGTA, 0.1%, b-Mercaptoethanol, 300 μM substrate peptide, 10 mM magnesium acetate and 0.005 mM [33P-g-ATP] (500-1000 cpm/pmole) and incubated for 30 mins at room temperature. Assays are stopped by addition of 50 of 0.5M (3%) orthophosphoric acid. The phosphorylated peptide was harvested on a p81 filterplate and the phosphorylation level was measured by scintillation counts.
# P1639C was supplemented to the mammalian cell culture with a series of concentration at 0.001 mM, 0.002 mM, 0.005 mM, 0.01 mM, 0.02 mM, 0.05 mM, 0.1 mM, 0.2 mM and 0.5 mM. SEAP provided in the Princess NINA kit was used as a stimulatory control to show normal inflammatory response in cells, whereas BAY11-7082 at a final concentration of 5 μM was used as the positive control of inhibited NF-κB activity. The cell with TNF-α was used as the negative control. The cell response to the supplemented compounds was measured by the 450 nm emission (360 nm excitation) after addition of inactivation buffer and MUP solution.
# IKKβ = target: T1, IKKβ (Homo sapiens, UniProt O14920); assay: IKKβ kinase assay (33P phosphorylation of substrate peptide); format: biochemical; conditions: 50 μM
# T1 sequence (O14920 1-756): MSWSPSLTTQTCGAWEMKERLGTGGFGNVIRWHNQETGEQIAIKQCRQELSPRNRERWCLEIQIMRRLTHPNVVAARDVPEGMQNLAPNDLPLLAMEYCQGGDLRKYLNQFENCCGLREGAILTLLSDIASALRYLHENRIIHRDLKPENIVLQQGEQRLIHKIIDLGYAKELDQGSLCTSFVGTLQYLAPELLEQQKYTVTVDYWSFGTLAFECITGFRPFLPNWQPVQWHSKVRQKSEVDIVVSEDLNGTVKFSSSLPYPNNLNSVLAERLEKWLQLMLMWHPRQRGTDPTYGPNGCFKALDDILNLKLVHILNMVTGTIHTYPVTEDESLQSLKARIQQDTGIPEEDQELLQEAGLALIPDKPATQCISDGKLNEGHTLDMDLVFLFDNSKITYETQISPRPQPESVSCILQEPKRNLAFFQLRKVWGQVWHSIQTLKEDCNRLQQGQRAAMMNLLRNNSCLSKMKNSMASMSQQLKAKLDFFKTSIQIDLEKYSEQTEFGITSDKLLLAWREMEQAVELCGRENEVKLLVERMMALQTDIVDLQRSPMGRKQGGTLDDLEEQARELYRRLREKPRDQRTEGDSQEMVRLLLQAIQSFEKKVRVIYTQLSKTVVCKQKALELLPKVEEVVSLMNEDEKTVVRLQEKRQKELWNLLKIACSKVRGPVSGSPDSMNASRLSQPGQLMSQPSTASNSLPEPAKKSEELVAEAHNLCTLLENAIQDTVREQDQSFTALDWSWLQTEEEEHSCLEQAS
# Description: as §2
# mammalian cell culture = assay: Cell viability (resazurin) coupled with the NFκB assay; format: cell-based; conditions: concentrations of the NF-κB assay
# Description: as §2
# Cell viability was carried out by incubation of the cells with resazurin and measuring the absorption at 600 nm against a reference measurement of above 650 nm.
# Description for human hepatocytes: The toxicology assay was carried out using an in vitro human hepatocytes model where human hepatocytes were exposed to varying concentrations of compound [MUT] as well as tamoxifen and chlorpromazine for three hours.
SMILES,M. furfur (MIC) (Malassezia furfur) [µg],C. albicans (MIC) (Candida albicans) [µg],MRSA (antimicrobial activity) (MRSA) [µg],depletion of intracellular ATP (level of toxicity) (human hepatocytes),other results
CC/C(=C(\c1ccccc1)c1ccc(OCCN(C)C)cc1)c1ccccc1 [tamoxifen],,,,moderate decreasing rate of intracellular ATP level,
CC1C=CC(=O)O1 (stereo not drawn) [5-methyl-2(5H)-furanone],5 to 7,5 to 7,>20,,
CN(C)CCCN1c2ccccc2Sc2ccc(Cl)cc21 [chlorpromazine],,,,moderate decreasing rate of intracellular ATP level,
"CCCCCCC1C=CC(=O)O1 (stereo not drawn) [P1639C, 5-hexylfuran-2(5H)-one]",<1,1 to 1.5,>10,significant ATP depletion was not observed,"NF-κB inhibition activity, comparison with known butenolides (NF-κB; 0.05 mM): the only active compound; inhibition of NF-κB mediated inflammatory response (NF-κB; 0.5 mM): almost fully inhibited; IC50 (NF-κB; TNF-α elicited response = 100%, read-out: concentration inhibiting 50% of the NF-κB mediated inflammatory response): 20 µM; induction of ARE-driven luciferase activity ([1]; 30 μM, 24 hours, compared with normal cells without oxidative induction): up to 18 fold; IKKβ phosphorylation activity decreased to (IKKβ): 64%±2%; MIC (Malassezia furfur; Malassezia furfur, read-out: MIC against M. furfur): 0.8 µg/mL; MIC (Candida albicans; Candida albicans, read-out: MIC against C. albicans): 1 to 1.5 µg/mL; cytotoxicity against the testing cells (mammalian cell culture): no significant cytotoxicity"

# Further lines, with some results ahead:
M. furfur (MIC) (Malassezia furfur) [µg],C. albicans (MIC) (Candida albicans) [µg],SMILES,MRSA (antimicrobial activity) (MRSA) [µg],depletion of intracellular ATP (level of toxicity) (human hepatocytes),other results
5 to 7,5 to 7,CC1=CCC(=O)O1 [5-methyl-2(3H)-furanone],>20,,
5 to 6,5 to 7,CC1=CCOC1=O [3-methy1-2(5H)-furanone],>20,,
>10,>10,O=C1C=CCO1 [2(5H)-furanone],>20,,anti-oxidant elicitation effect (ARE-driven gene expression) ([1]; comparison of FIG. 8): did not show significant anti-oxidant elicitation effects
